According to patent US20070073056A1, “4-Substituted Pyrazoline Compounds, their Preparation and Use as Medicaments” (LABORATORIOS DEL DR. ESTEVE, S.A., priority 2005, published 2007):
Structures can show the parent of a compound that is named as a salt. Where two headings read alike, the source gives them in different places.

Assays:
[1] = target: CB1-receptor (UniProt P20272); assay: binding of the pyrazoline compounds to CB1-receptors (Pharmacological Methods, Part I); parameters: IC50; species or system human or rat
Protocol: (§1) I. In-vitro Determination of Affinity to CB1/CB2-Receptors
(§2) The in-vitro determination of the affinity of the inventive 4-substituted pyrazoline compounds to CB1/CB2-Rezeptors is carried out as described in the publication of Ruth A. Ross, Heather C. Brockie et al., “Agonist-inverse agonist characterisation at CB1 and CB2 cannabinoid receptors of L-759633, L759656 and AM630”, British Journal of Pharmacology, 126, 665-672, (1999), whereby the transfected human CB1 and CB2 receptors of Receptor Biology, Inc. are used. The radioligand used for both receptors is [^3H]-CP55940. The respective parts of the description is hereby incorporated by reference and forms part of the present disclosure.
(§3) Rat Cerebellum CB1 Binding
(§4) Binding affinity to CB1 receptor was evaluated according to a modification of the method described by Govaerts et al., Eur J Pharmac Sci 23, 233-243 (2004). The respective parts of the description is hereby incorporated by reference and forms part of the present disclosure.
(§5) Briefly, cerebellum from male wistar rats (250-300 g) were carefully dissected on ice and homogenates were prepared with Potter-Helveheim in a cold 50 mM Tris-HCl solution containing 5 mM MgCl2, 1 mM EDTA and 0.25 M sucrose, pH 7.4. The suspension was centrifuged at […] for 5 minutes. The supernatants were collected and centrifuged 50,000×g for 15 minutes. The resulting pellets were then resuspended in Tris-HCl buffer without sucrose, homogenized and incubated for 15 min at 37° C. in an orbital shaker bath and centrifuged again at 50,000×g for 15 min. Pellets were weighted, resuspended in Tris-HCl buffer without sucrose, homogenized with Ultraturrax at 13,500 rpm for 3×5 seconds and alicuoted in 0.9 ml volumes in Eppendorf tubes. Alicuotes were centrifuged at 20,800×g for 5 minutes, supernatants discarded and pellets were frozen at −80° C. until use. Total protein concentration was determined using the Bio-Rad Lowry method based kit. Competitive binding experiments were performed in presence of 1 nM [^3H]-CP 55,940 in siliconized glass tubes containing 100 μg protein/tube resuspended in 1 ml final volume of 50 mM Tris-HCl, 5 mM MgCl2, 1 mM EDTA, 0.5% (w/v) bovine serum albumin, pH 7.4. Compounds were present at various concentrations and the non specific binding was determined in the presence of 10 μM HU-210. After 1 hour incubation at 30° C., the suspension was rapidly filtered through 0.5% PEI pre-treated GF/B fiber filters on a 96-well harvester and washed 3 times with 3 ml ice-cold binding buffer without bovine serum albumin. Radioactivity on filters was measured with Wallac Winspectral 1414 counter by liquid scintillation in 6 ml Ecoscint H (National Diagnostics, U.K.). Assays were made in triplicates.
(§6) Binding data were analyzed by non-linear regression with the software GraphPad Prism Version 3.03.
(§7) The binding of the pyrazoline compounds of general formula I to CB1-receptors was determined according to the method described in the section Pharmacological Methods, Part I.

[2] = target: CB1-receptor (UniProt P20272); assay: as above; parameters: other: 10^−7 M; other: 10^−8 M; species or system human or rat
Protocol: as §1, §2, §3, §4, §5, §6, §7

[3] = radioligand [3H]-CP55940, read-out: IC50

Row | Structure (SMILES) | IC50 [1, 3] [nM] | Inhibition ([2]; 10^−7 M) [%] | Inhibition ([2]; 10^−8 M, in %) | IC50 ([1]; radioligand [3H]-CP55940, hydrochloride, read-out: IC50) [nM] | IC50 ([1]; radioligand [3H]-CP55940) [nM]
1 | C[C@H]1C(C(=O)NN2CC3CCCC3C2)=NN(c2ccc(Cl)cc2Cl)[C@H]1c1ccc(Cl)cc1 (relative stereo) [Example 13, cis-5-(4-Chloro-phenyl)-1-(2,4-dichloro-phenyl)-4-methyl-4,5-dihydro-1H-pyrazole-3-carboxylic acid (hexahydro-cyclopenta[c]pyrrol-2-yl)-amide] | 25.1 | 70.6 | 27.6 | – | –
2 | C[C@H]1C(C(=O)NN2CCCCCC2)=NN(c2ccc(Cl)cc2Cl)[C@H]1c1ccc(Cl)cc1.Cl (relative stereo) [Example 96, cis-5-(4-Chlorophenyl)-1-(2,4-dichlorophenyl)-4-methyl-4,5-dihydro-1H-pyrazole-3-carboxylic acid azepan-1-ylamide hydrochloride] | 7.9 | 80 | 65 | – | –
3 | CC1CCCC(C)N1NC(=O)C1=NN(c2ccc(Cl)cc2Cl)[C@H](c2ccc(Cl)cc2)[C@@H]1C (relative stereo) [Example 103, cis-5-(4-chlorophenyl)-1-(2,4-dichlorophenyl)-N-(2,6-dimethylpiperidin-1-yl)-4-methyl-4,5-dihydro-1H-pyrazole-3-carboxamide] | 60.6 | 55.3 | 19.5 | – | –
4 | CC1Cc2ccccc2N1NC(=O)C1=NN(c2ccc(Cl)cc2Cl)[C@@H](c2ccc(Cl)cc2)[C@H]1C (relative stereo) [Example 113, cis-5-(4-chlorophenyl)-1-(2,4-dichlorophenyl)-4-methyl-N-(2-methylindolin-1-yl)-4,5-dihydro-1H-pyrazole-3-carboxamide] | 128 | 55.5 | 24.7 | – | –
5 | C[C@@H]1C(C(=O)NC2CCCCCCC2)=NN(c2ccc(Cl)cc2Cl)[C@@H]1c1ccc(Cl)cc1 (relative stereo) [Example 119, cis-5-(4-chlorophenyl)-N-cyclooctyl-1-(2,4-dichlorophenyl)-4-methyl-4,5-dihydro-1H-pyrazole-3-carboxamide] | 51.4 | 73.7 | 19.5 | – | –
6 | C[C@H]1C(C(=O)NC2CCCCCC2)=NN(c2ccc(Cl)cc2Cl)[C@H]1c1ccc(Cl)cc1 (relative stereo) [Example 123, cis-5-(4-chlorophenyl)-N-cycloheptyl-1-(2,4-dichlorophenyl)-4-methyl-4,5-dihydro-1H-pyrazole-3-carboxamide] | 31.9 | 90.8 | 39.9 | – | –
7 | C[C@H]1C(C(=O)NN2CCCCCC2)=NN(c2ccc(Cl)cc2Cl)[C@H]1c1ccc(Br)cc1.Cl (relative stereo) [Example 207, cis-N-(azepan-1-yl)-5-(4-bromophenyl)-1-(2,4-dichlorophenyl)-4-methyl-4,5-dihydro-1H-pyrazole-3-carboxamide hydrochloride] | 71 | 73 | 48.3 | – | –
8 | C[C@H]1C(C(=O)NC2CCCCCC2)=NN(c2ccc(Cl)cc2Cl)[C@H]1c1ccc(Br)cc1 (relative stereo) [Example 211, cis-5-(4-bromophenyl)-N-cycloheptyl-1-(2,4-dichlorophenyl)-4-methyl-4,5-dihydro-1H-pyrazole-3-carboxamide] | 30 | 69.8 | 37.2 | – | –
9 | C[C@H]1C(C(=O)NN2CC3CCCC3C2)=NN(c2ccc(Cl)cc2Cl)[C@H]1c1ccc(Br)cc1 (relative stereo) [Example 213, cis-5-(4-bromophenyl)-1-(2,4-dichlorophenyl)-N-(hexahydrocyclopenta[c]pyrrol-2(1H)-yl)-4-methyl-4,5-dihydro-1H-pyrazole-3-carboxamide hydrochloride] | 53 | – | – | – | –
10 | C[C@H]1C(C(=O)NC2CCCCCC2)=NN(c2ccc(Cl)cc2Cl)[C@H]1c1ccc(F)cc1 (relative stereo) [Example 231, cis-N-cycloheptyl-1-(2,4-dichlorophenyl)-5-(4-fluorophenyl)-4-methyl-4,5-dihydro-1H-pyrazole-3-carboxamide] | 112 | 50.5 | 23.2 | – | –
11 | COc1ccc([C@@H]2[C@H](C)C(C(=O)NN3CCCCC3)=NN2c2ccc(Cl)cc2Cl)cc1.Cl (relative stereo) [Example 265, cis-1-(2,4-dichlorophenyl)-5-(4-methoxyphenyl)-4-methyl-N-(piperidin-1-yl)-4,5-dihydro-1H-pyrazole-3-carboxamide hydrochloride] | – | 62 | 29.2 | 60 | –
12 | COc1ccc([C@H]2[C@@H](C)C(C(=O)NN3CCCCCC3)=NN2c2ccc(Cl)cc2Cl)cc1.Cl (relative stereo) [Example 271, cis-N-(azepan-1-yl)-1-(2,4-dichlorophenyl)-5-(4-methoxyphenyl)-4-methyl-4,5-dihydro-1H-pyrazole-3-carboxamide hydrochloride] | 61 | 73.5 | 30.6 | – | –
13 | COc1ccc([C@H]2[C@@H](C)C(C(=O)NC3CCCCCC3)=NN2c2ccc(Cl)cc2Cl)cc1 (relative stereo) [Example 275, cis-N-cycloheptyl-1-(2,4-dichlorophenyl)-5-(4-methoxyphenyl)-4-methyl-4,5-dihydro-1H-pyrazole-3-carboxamide] | – | 69.1 | 26.1 | – | 66
14 | COc1ccc([C@H]2[C@@H](C)C(C(=O)NN3CC4CCCC4C3)=NN2c2ccc(Cl)cc2Cl)cc1.Cl (relative stereo) [Example 277, cis-1-(2,4-dichlorophenyl)-N-(hexahydrocyclopenta[c]pyrrol-2(1H)-yl)-5-(4-methoxyphenyl)-4-methyl-4,5-dihydro-1H-pyrazole-3-carboxamide hydrochloride] | 20 | 61.6 | 17.9 | – | –
15 | COc1ccc([C@@H]2[C@H](C)C(C(=O)NN3CCc4ccccc43)=NN2c2ccc(Cl)cc2Cl)cc1 (relative stereo) [Example 279, cis-1-(2,4-dichlorophenyl)-N-(indolin-1-yl)-5-(4-methoxyphenyl)-4-methyl-4,5-dihydro-1H-pyrazole-3-carboxamide] | 19 | 62.4 | 14.7 | – | –
16 | C[C@@H]1C(C(=O)NN2CCCCC2)=NN(c2ccc(Cl)cc2Cl)[C@H]1c1ccc(Cl)s1 (relative stereo) [Example 426, trans-5-(5-chlorothiophen-2-yl)-1-(2,4-dichlorophenyl)-4-methyl-N-(piperidin-1-yl)-4,5-dihydro-1H-pyrazole-3-carboxamide hydrochloride] | 280 | – | – | – | –
17 | C[C@@H]1C(C(=O)NN2CCCCC2)=NN(c2ccc(Cl)cc2Cl)[C@@H]1c1ccc(Cl)s1 (relative stereo) [Example 427, cis-5-(5-chlorothiophen-2-yl)-1-(2,4-dichlorophenyl)-4-methyl-N-(piperidin-1-yl)-4,5-dihydro-1H-pyrazole-3-carboxamide hydrochloride] | 160 | – | – | – | –
18 | C[C@@H]1C(C(=O)NN2CCCCC2)=NN(c2ccc(Cl)cc2Cl)[C@H]1c1ccc(Cl)cc1 (relative stereo) [Example 431, trans-5-(4-chlorophenyl)-1-(2,4-dichlorophenyl)-4-methyl-N-(piperidin-1-yl)-4,5-dihydro-1H-pyrazole-3-carboxamide] | 79 | – | – | – | –
19 | C[C@@H]1C(C(=O)NN2CCCCC2)=NN(c2ccc(Cl)cc2Cl)[C@@H]1c1ccc(Cl)cc1 (relative stereo) [Example 434, cis-5-(4-chlorophenyl)-1-(2,4-dichlorophenyl)-4-methyl-N-(piperidin-1-yl)-4,5-dihydro-1H-pyrazole-3-carboxamide] | 89 | – | – | – | –
